{
  "source": "patent US12358949B2",
  "about": "“Defensin fragments for use in therapy or prophylaxis” (priority 2019, dated 2025)",
  "key": {"C. albicans 529L": {"system": "C. albicans 529L", "type": "cell-based", "details": "C. albicans 529L; after 12 hours (Table 4)"}, "P. aeruginosa PAO1": {"system": "P. aeruginosa PAO1", "type": "cell-based", "procedure": "(§1) The tested bacteria were incubated overnight in 1×TSB broth, centrifuged and washed with 10 mM sodium phosphate buffer containing 1% (w/v) TSB broth. 5×10^5 cfu/ml bacteria were mixed with different peptide concentrations in 10 mM sodium phosphate buffer with 1% (w/v) TSB (final volume 100 μl) and incubated for 2 hours at 37° C. Afterwards we added 100 μl 2×TSB broth and we measured the optical density at 600 nm (Spark 10M, Tecan, Austria). Bacterial growth was monitored for 12 hours, growing at 37° C. with shaking during the measurements each 30 minutes, except for Akkermansia muciniphila which were incubated at 37° C. in an anaerobic jar and growth was measured after 72 hours."}, "S. aureus ATCC 25923": {"system": "S. aureus ATCC 25923", "type": "cell-based", "procedure": "as §1"}, "A. baumannii 4-MRGN": {"system": "A. baumannii 4-MRGN", "type": "cell-based", "procedure": "as §1"}, "P. aeruginosa ATCC 27853": {"system": "P. aeruginosa ATCC 27853", "type": "cell-based", "procedure": "as §1"}, "E. faecium 475747": {"system": "E. faecium 475747", "type": "cell-based", "details": "E. faecium 475747; after 12 hours", "procedure": "as §1"}, "P. aeruginosa 4-MRGN": {"system": "P. aeruginosa 4-MRGN", "type": "cell-based", "procedure": "as §1"}, "Y. enterocolitica": {"system": "Y. enterocolitica", "type": "cell-based", "procedure": "as §1"}, "P. aeruginosa XPAT1": {"system": "P. aeruginosa XPAT1", "type": "cell-based", "procedure": "as §1"}, "A. baumannii DSM 30007": {"system": "A. baumannii DSM 30007", "type": "cell-based", "procedure": "as §1"}, "E. faecium DSM 20477": {"system": "E. faecium DSM 20477", "type": "cell-based", "procedure": "as §1"}, "E. coli BW 25113 [1]": {"system": "E. coli BW 25113", "type": "cell-based", "procedure": "as §1"}, "K. pneumoniae 3-MRGN": {"system": "K. pneumoniae 3-MRGN", "type": "cell-based", "details": "K. pneumoniae 3-MRGN; after 12 hours", "procedure": "as §1"}, "K. pneumoniae DSM 30104": {"system": "K. pneumoniae DSM 30104", "type": "cell-based", "details": "K. pneumoniae DSM30104; after 12 hours", "procedure": "as §1"}, "P. aeruginosa XPAT2": {"system": "P. aeruginosa XPAT2", "type": "cell-based", "procedure": "as §1"}, "S. aureus USA300": {"system": "S. aureus USA300", "type": "cell-based", "procedure": "as §1"}, "[2]": {"system": "S. enterica serovar enteriditis", "assay": "Turbidity broth assay (MIC)", "type": "cell-based", "details": "after 12 hours", "procedure": "as §1"}, "[3]": {"system": "human cell line, red blood cells", "protocol": "As positive control, cells were treated with 2% Triton X-100 while treatment with 0.01% acetic acid was used as negative control. […] Hemolytic activity was normalized to the hemolytic activity of 0.1% Triton X-100. The experiments were carried out in duplicates.\nThe activity was normalized to the positive control. As positive control, cells were treated with 2% Triton X-100 while treatment with 0.01% acetic acid was used as negative control."}, "E. coli BW 25113 [4]": {"system": "E. coli BW 25113", "assay": "Turbidity assay, MIC by optical density after 18 h", "type": "cell-based", "design": "key: XX High activity; X Low activity; No activity", "procedure": "Bactericidal activity of the E. coli and S. aureus strains in the cell wall target experiments as well as the HD5 dimer experiments was assessed as described previously. Log-phase bacteria were collected by centrifugation (2500 rpm, 10 min, […]), washed twice with 10 mM sodium phosphate buffer containing 1% (w/v) TSB broth and the optical density at OD600 nm (OD600=0.1) was determined. Approximately 5×10^5 CFU/ml bacteria were incubated with serial peptide concentrations (1.17-150 μM) in a final volume of 100 μl in 10 mM sodium phosphate buffer containing 1% (w/v) TSB broth for 2 hours at 37° C. After incubation, 100 μl of 6% TSB (w/v) were added and absorbance was measured at 600 nm (Tecan, Switzerland) and monitored for 18 hours. Afterwards, 100 μl per well were plated on LB-plates to determine the numbers of viable bacteria microbiologically. Bactericidal activity is expressed as the LC99.9, the lowest concentration that killed ≥99.9% of bacteria. The experiment was repeated at least three times independently."}, "[5]": {"system": "S. enterica serovar Enteritidis", "assay": "Turbidity assay, MIC by optical density after 18 h", "type": "cell-based", "design": "key: XX High activity; X Low activity; No activity"}, "E. faecalis ATCC 19433": {"system": "E. faecalis ATCC 19433", "assay": "Turbidity assay, MIC by optical density after 18 h", "type": "cell-based"}},
  "note": "Like-named read-outs stand apart in the source and are kept apart here. Where a SMILES comes first, the peptide text is derived from it.",
  "data": [
    {"compound": "Ac-atcycrtGr-NH2 [HD-51-9mod]", "values": [
      {"measurement": "MIC", "setting": "C. albicans 529L", "result": ">100", "unit": "µM"},
      {"measurement": "MIC", "setting": "P. aeruginosa PAO1; P. aeruginosa PAO1, after 12 hours", "result": 50, "unit": "µM"},
      {"measurement": "MIC", "setting": "S. aureus ATCC 25923; S. aureus ATCC25923, after 12 hours", "result": 12.5, "unit": "µM"},
      {"measurement": "MIC", "setting": "A. baumannii 4-MRGN; A. baumannii 4-MRGN, after 12 hours", "result": 12.5, "unit": "µM"},
      {"measurement": "MIC", "setting": "P. aeruginosa ATCC 27853; P. aeruginosa ATCC 27853, after 12 hours", "result": 12.5, "unit": "µM"},
      {"measurement": "MIC", "setting": "E. faecium 475747", "result": 3.125, "unit": "µM"},
      {"measurement": "MIC", "setting": "P. aeruginosa 4-MRGN; P. aeruginosa 4-MRGN, after 12 hours", "result": 50, "unit": "µM"},
      {"measurement": "MIC", "setting": "Y. enterocolitica; Y. enterocolitica, after 12 hours", "result": "50 to 100", "unit": "µM"},
      {"measurement": "MIC", "setting": "P. aeruginosa XPAT1; P. aeruginosa XPAT1, after 12 hours", "result": ">100", "unit": "µM"},
      {"measurement": "MIC", "setting": "A. baumannii DSM 30007; A. baumannii DSM30007, after 12 hours", "result": 25, "unit": "µM"},
      {"measurement": "MIC", "setting": "E. faecium DSM 20477; E. faecium DSM20477, after 12 hours", "result": 6.25, "unit": "µM"},
      {"measurement": "MIC", "setting": "E. coli BW 25113 [1]; E. coli (BW 25113 per table title), after 12 hours", "result": 25, "unit": "µM"},
      {"measurement": "MIC", "setting": "K. pneumoniae 3-MRGN", "result": ">>>"},
      {"measurement": "MIC", "setting": "K. pneumoniae DSM 30104", "result": ">>>"},
      {"measurement": "MIC", "setting": "P. aeruginosa XPAT2; P. aeruginosa XPAT2, after 12 hours", "result": 100, "unit": "µM"},
      {"measurement": "MIC", "setting": "S. aureus USA300; S. aureus USA300, after 12 hours", "result": 12.5, "unit": "µM"},
      {"measurement": "MIC", "setting": "[2]", "result": ">>>"}
    ]},
    {"compound": "C[C@H](N)C(=O)N[C@H](C(=O)N[C@@H](CS)C(=O)N[C@@H](Cc1ccc(O)cc1)C(=O)N[C@@H](CS)C(=O)N[C@@H](CCCNC(=N)N)C(=O)N[C@H](C(=O)NCC(=O)N[C@@H](CCCNC(=N)N)C(=O)O)[C@@H](C)O)[C@@H](C)O", "note": "[HD-51-9] (H-ATCYCRTGR-OH; N-terminus and C-terminus assumed)", "values": [
      {"measurement": "MIC", "setting": "P. aeruginosa PAO1; PAO1, 12 h", "result": 50, "unit": "µM"},
      {"measurement": "MIC", "setting": "S. aureus ATCC 25923; ATCC 25923, 12 h", "result": 50, "unit": "µM"},
      {"measurement": "MIC", "setting": "A. baumannii 4-MRGN; 4-MRGN, 12 h", "result": 25, "unit": "µM"},
      {"measurement": "MIC", "setting": "P. aeruginosa ATCC 27853; ATCC 27853, 12 h", "result": 50, "unit": "µM"},
      {"measurement": "MIC", "setting": "P. aeruginosa 4-MRGN; 4-MRGN, 12 h", "result": 100, "unit": "µM"},
      {"measurement": "MIC", "setting": "Y. enterocolitica; 12 h", "result": "50 to 100", "unit": "µM"},
      {"measurement": "MIC", "setting": "P. aeruginosa XPAT1; XPAT1, 12 h", "result": ">100", "unit": "µM"},
      {"measurement": "MIC", "setting": "A. baumannii DSM 30007; DSM 30007, 12 h", "result": 100, "unit": "µM"},
      {"measurement": "MIC", "setting": "E. faecium DSM 20477; DSM 20477, 12 h", "result": 25, "unit": "µM"},
      {"measurement": "MIC", "setting": "E. coli BW 25113 [1]; BW 25113, 12 h", "result": 25, "unit": "µM"},
      {"measurement": "MIC", "setting": "P. aeruginosa XPAT2; XPAT2, 12 h", "result": ">100", "unit": "µM"},
      {"measurement": "MIC", "setting": "S. aureus USA300; USA300, 12 h", "result": 50, "unit": "µM"},
      {"measurement": "toxic effect in in vitro experiments", "setting": "[3]", "result": "no toxicity was observed"}
    ]},
    {"compound": "RGTRCYCTA [HD-51-9rev]", "values": [
      {"measurement": "antimicrobial activity (MIC), activity class", "setting": "E. coli BW 25113 [4]", "result": "XX"},
      {"measurement": "antimicrobial activity (MIC), activity class", "setting": "[5]", "result": "X"},
      {"measurement": "antimicrobial activity, in words", "setting": "E. faecalis ATCC 19433", "result": "complete dissolving of bactericidal effects"}
    ]}
  ]
}
